According to patent US20250186734A1, “METHODS AND SYSTEMS FOR AUTOMATED NEUR[…] TO EXTEND RELIEF OF TREATMENT-RESISTANT MENTAL DISORDERS” (UNIVERSITY OF PITTSBURGH-OF THE COMMONWEALTH SYSTEM OF …, priority 2022, published 2025):

Legend:
depressed patients = conditions: cited from earlier work
[1] = test system: patients with treatment-resistant depression; assay: Randomized controlled trial of ketamine infusion and automated self-association training (ASAT/NT): MADRS depression severity; format: in vivo, human
Excerpt: Participants. To achieve the initial recruitment target of n=150 patients, the study enrolled and randomized n=154 patients, continuing enrollment until a final sample was acquired that included the full target of n=150 patients who completed, at a minimum, (1) an infusion day, (2) a 24-hour assessment visit, and (3) ≥75% of intended Cognitive Training (active or sham NT) visits. All n=154 randomized patients were included in the reported intent-to-treat analyses. In particular, 154 adult (age 18-60) patients reporting moderate-to-severe levels of depression [Montgomery-Asberg Depression Rating Scale (MADRS; [Montgomery S A, Asberg M: A new depression scale designed to be sensitive to change. Br J Psychiatry. 1979; 134:382-9]) score 25], lower-than-normative self-reported self-esteem [i.e., scoring outside of 1SD from the normative mean on the Cognitive Triad Inventory [Beckham E E, Leber W R, Watkins J T, Boyer J L, Cook J B: Development of an instrument to measure Beck's cognitive triad: the Cognitive Triad Inventory. J Consult Clin Psychol. 1986; 54(4):566-7]“self” subscale [Anderson K W, Skidmore J R: Empirical analysis of factors in depressive cognition: the cognitive triad inventory. J Clin Psychol. 1995; 51(5):603-9; Possel P: Cognitive Triad Inventory (CTI): psychometric properties and factor structure of the German translation. J Behav Ther Exp Psychiatry. 2009; 40(2):240-7] and/or the Rosenberg Self-Esteem Scale], and at least one failed, adequate trial of an FDA-approved antidepressant medication in the current depressive episode (per Antidepressant Treatment Response Questionnaire; ATRQ [Chandler G M, losifescu DV, Pollack M H, Targum S D, Fava M: RESEARCH: Validation of the Massachusetts General Hospital Antidepressant Treatment History Questionnaire (ATRQ). CNS Neurosci Ther. 2010; 16(5):322-5]), were recruited and randomized. Any existing depression treatment regimens were required to be stably maintained beginning 4 weeks prior to screening and throughout the trial. See FIG. 10, Table S1 and Examples 6-8 below for sample characteristics.
Assessment Timeline. An experienced, Master's level clinical rater (CRS) administered the MADRS, the study's pre-specified primary endpoint throughout the acute (30-day) study period, to assess overall depression severity. The measure was repeated at screening (used for eligibility determinations only), pre-infusion baseline (infusion −1 hour; the clinical rater then left and was not present during any intervention procedure), infusion +24 hours (prior to the first session of active/sham NT), +5, +12, +21, and +30 days. […] This study also contemplates including and analyzing neurocognitive (e.g., neuroimaging; performance-based) assessments of ketamine's impact. Adequacy of both patient and rater blinding, for both infusion and NT allocation, was assessed by self-report using a 0-100 sliding scale (0=definitely placebo/sham; 50=1 don't know; 100=definitely ketamine/active) at infusion+30 days.
Interventions. A randomization table using permuted blocks of 3 or 6, stratified by (1) biological sex at birth and (2) modest vs. severe treatment resistance (severe=≥3 FDA-approved antidepressant trials in episode, per ATRQ), was generated by an independent statistical consultant at study start and maintained by the study pharmacist, who, at the point of randomization, conveyed the NT allocation (but not the infusion allocation) to a single study staff member who was assigned to that patient. This single staff member was tasked with opening the correct computer program to deliver the NT sessions to that patient, but was not involved in, nor present for, any outcome ratings. Blinding for all other study personnel was maintained until after the final patient's Day 30 assessment was complete.
Infusion. Participants were randomized 2:1 to ketamine (0.5 mg/kg over 40 min) or saline (50 ml 0.9% Sodium Chloride over 40 min) infusion. […]

[2] = test system: patients with treatment-resistant depression; assay: Adverse event monitoring after infusion in the trial; format: in vivo, human; conditions: 0.5 mg/kg over 40 min infusion, monitoring for 4 hours post-infusion
Protocol: Infusion. Participants were randomized 2:1 to ketamine (0.5 mg/kg over 40 min) or saline (50 ml 0.9% Sodium Chloride over 40 min) infusion. All infusions were administered by blinded, licensed nurses in a medical hospital setting with a linked ACLS-certified team, with blinded study physician (RHH) oversight and safety/adverse event monitoring sustained for 4-hours post-infusion.

[3] = 24 hours post-infusion, ketamine vs saline

For `CNC1(c2ccccc2Cl)CCCCC1=O` (centres unmarked) [ketamine], the “response rates in depressed patients” value (depressed patients; as early as 2 hours post-ketamine) is given as 55-80%, the “time within which symptoms are dramatically reduced” value (depressed patients; intravenous ketamine) is given as 2 to 24 h and the “duration of improvements provided by a single infusion in isolation” value (depressed patients; prior published work) is given as 1-2 week. The “time after which effects of a single infusion dissipate” value (depressed patients; single infusion) was 3 to 7 days, the “remitter rate (MADRS≤9)” value ([1]; 24 hours post-infusion) was 28% and the “responder rate (≥50% decrease from pre-infusion MADRS baseline)” value ([1]; 24 hours post-infusion) was 52%. For the same compound, the NNT for remission [1, 3] was 4.2, the “number-needed-to-treat (NNT) for response” value [1, 3] was 3.7 and the “MADRS total depression score, group by time interaction, standardized β” value ([1]; infusion phase, pre-infusion to 24 hours post-infusion, ketamine 0.5 mg/kg over 40 min vs saline) was −1.30. For the same compound, the “duration of the rapid antidepressant effect of a single infusion extended by Cognitive Training” value ([1]; single ketamine infusion followed by 8 sessions of Cognitive Training) was “at least 30 days” and the adverse events [2] was “mild-to-moderate, time-limited”.
